According to PubChem BioAssay (NCI):
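1) Cells in 96-well plates. 2) Compound, 48 h, 5 concentrations. 3) Linear interpolation between surrounding doses. 4) Unreached endpoint = highest concentration. At the TGI there is no net growth.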

Experiments:
Test in all cases: NCI anticancer screen, dose series, 48 h
CCRF-CEM leukemia = tested on: CCRF-CEM leukemia
OVCAR-4 ovarian = tested on: OVCAR-4 ovarian
CAKI-1 renal = tested on: CAKI-1 renal
MOLT-4 leukemia = tested on: MOLT-4 leukemia
HCT-15 colon = tested on: HCT-15 colon
LOX IMVI melanoma = tested on: LOX IMVI melanoma
MCF7 breast = tested on: MCF7 breast
SNB-19 CNS = tested on: SNB-19 CNS
K-562 leukemia = tested on: K-562 leukemia
UO-31 renal = tested on: UO-31 renal
RPMI-8226 leukemia = tested on: RPMI-8226 leukemia
SK-MEL-28 melanoma = tested on: SK-MEL-28 melanoma
EKVX NSCLC = tested on: EKVX NSCLC
NCI/ADR-RES ovarian = tested on: NCI/ADR-RES ovarian
KM12 colon = tested on: KM12 colon
SF-268 CNS = tested on: SF-268 CNS
IGROV1 ovarian = tested on: IGROV1 ovarian
HL-60(TB) leukemia = tested on: HL-60(TB) leukemia
SF-539 CNS = tested on: SF-539 CNS
MDA-N = tested on: MDA-N
OVCAR-3 ovarian = tested on: OVCAR-3 ovarian
SK-MEL-5 melanoma = tested on: SK-MEL-5 melanoma
SK-MEL-2 melanoma = tested on: SK-MEL-2 melanoma
T-47D breast = tested on: T-47D breast
U251 CNS = tested on: U251 CNS
OVCAR-8 ovarian = tested on: OVCAR-8 ovarian
COLO 205 colon = tested on: COLO 205 colon
DU-145 prostate = tested on: DU-145 prostate
A549 NSCLC = tested on: A549 NSCLC
HCT-116 colon = tested on: HCT-116 colon
SNB-75 CNS = tested on: SNB-75 CNS
BT-549 breast = tested on: BT-549 breast
HOP-62 NSCLC = tested on: HOP-62 NSCLC
UACC-257 melanoma = tested on: UACC-257 melanoma
NCI-H522 lung = tested on: NCI-H522 lung
TK-10 renal = tested on: TK-10 renal
MDA-MB-435 = tested on: MDA-MB-435
ACHN renal = tested on: ACHN renal
NCI-H460 lung = tested on: NCI-H460 lung
SR leukemia = tested on: SR leukemia
M14 melanoma = tested on: M14 melanoma
HT29 colon = tested on: HT29 colon
PC-3 prostate = tested on: PC-3 prostate
HS 578T breast = tested on: HS 578T breast
SF-295 CNS = tested on: SF-295 CNS
OVCAR-5 ovarian = tested on: OVCAR-5 ovarian
A498 renal = tested on: A498 renal
NCI-H226 lung = tested on: NCI-H226 lung
786-0 renal = tested on: 786-0 renal
SN12C renal = tested on: SN12C renal
NCI-H23 lung = tested on: NCI-H23 lung
SW-620 colon = tested on: SW-620 colon
MDA-MB-231 breast = tested on: MDA-MB-231 breast
UACC-62 melanoma = tested on: UACC-62 melanoma
SK-OV-3 ovarian = tested on: SK-OV-3 ovarian
MALME-3M melanoma = tested on: MALME-3M melanoma
HCC-2998 colon = tested on: HCC-2998 colon
RXF 393 renal = tested on: RXF 393 renal

With Cc1ccc2c(c1)nc(N)n[n+]2[O-] the TGI (CCRF-CEM leukemia) was over 100 µM, the TGI (OVCAR-4 ovarian) was over 100 µM and the TGI (CAKI-1 renal) was over 100 µM. It also gave a TGI (MOLT-4 leukemia) of over 100 µM, a TGI (HCT-15 colon) of over 100 µM and a TGI (LOX IMVI melanoma) of over 100 µM. For the same compound, the TGI (MCF7 breast) was over 100 µM, the TGI (SNB-19 CNS) was over 100 µM and the TGI (K-562 leukemia) was over 100 µM. The TGI (UO-31 renal) was over 100 µM, the TGI (RPMI-8226 leukemia) was over 100 µM and the TGI (SK-MEL-28 melanoma) was over 100 µM. The TGI (EKVX NSCLC) was over 100 µM, the TGI (NCI/ADR-RES ovarian) was over 100 µM and the TGI (KM12 colon) was over 100 µM. For the same compound, the TGI (SF-268 CNS) was over 100 µM, the TGI (IGROV1 ovarian) was over 100 µM and the TGI (HL-60(TB) leukemia) was over 100 µM. For the same compound, the TGI (SF-539 CNS) was over 100 µM, the TGI (MDA-N) was over 100 µM and the TGI (OVCAR-3 ovarian) was over 100 µM. The TGI (SK-MEL-5 melanoma) was over 100 µM, the TGI (SK-MEL-2 melanoma) was over 100 µM and the TGI (T-47D breast) was over 100 µM. For the same compound, the TGI (U251 CNS) was over 100 µM, the TGI (OVCAR-8 ovarian) was over 100 µM and the TGI (COLO 205 colon) was over 100 µM. The TGI (DU-145 prostate) was over 100 µM, the TGI (A549 NSCLC) was over 100 µM and the TGI (HCT-116 colon) was over 100 µM. The TGI (SNB-75 CNS) was over 100 µM, the TGI (BT-549 breast) was over 100 µM and the TGI (HOP-62 NSCLC) was over 100 µM. For the same compound, the TGI (UACC-257 melanoma) was over 100 µM, the TGI (NCI-H522 lung) was over 100 µM and the TGI (TK-10 renal) was over 100 µM. The TGI (MDA-MB-435) was over 100 µM, the TGI (ACHN renal) was over 100 µM and the TGI (NCI-H460 lung) was over 100 µM. For the same compound, the TGI (SR leukemia) was over 100 µM, the TGI (M14 melanoma) was over 100 µM and the TGI (HT29 colon) was over 100 µM. For the same compound, the TGI (PC-3 prostate) was over 100 µM, the TGI (HS 578T breast) was over 100 µM and the TGI (SF-295 CNS) was over 100 µM. The TGI (OVCAR-5 ovarian) was over 100 µM, the TGI (A498 renal) was over 100 µM and the TGI (NCI-H226 lung) was over 100 µM. The TGI (786-0 renal) was over 100 µM, the TGI (SN12C renal) was over 100 µM and the TGI (NCI-H23 lung) was over 100 µM. The TGI (SW-620 colon) was over 100 µM, the TGI (MDA-MB-231 breast) was over 100 µM and the TGI (UACC-62 melanoma) was over 100 µM. The TGI (SK-OV-3 ovarian) was over 100 µM.
With O=C1CC(c2ccco2)C2(C(=O)NC(=O)NC2=O)C(c2ccco2)C1 (configuration not stated) the TGI (CCRF-CEM leukemia) was over 75 µM, the TGI (MALME-3M melanoma) was over 75 µM and the TGI (OVCAR-4 ovarian) was over 75 µM. For the same compound, the TGI (CAKI-1 renal) was over 75 µM, the TGI (MOLT-4 leukemia) was over 75 µM and the TGI (HCT-15 colon) was over 75 µM. It also gave a TGI (LOX IMVI melanoma) of over 75 µM, a TGI (MCF7 breast) of over 75 µM and a TGI (SNB-19 CNS) of over 75 µM. It also gave a TGI (K-562 leukemia) of over 75 µM, a TGI (UO-31 renal) of over 75 µM and a TGI (RPMI-8226 leukemia) of over 75 µM. The TGI (SK-MEL-28 melanoma) was over 75 µM, the TGI (EKVX NSCLC) was over 75 µM and the TGI (NCI/ADR-RES ovarian) was over 75 µM. It also gave a TGI (KM12 colon) of over 75 µM, a TGI (HCC-2998 colon) of over 75 µM and a TGI (RXF 393 renal) of over 75 µM. It also gave a TGI (SF-268 CNS) of over 75 µM, a TGI (IGROV1 ovarian) of over 75 µM and a TGI (HL-60(TB) leukemia) of over 75 µM. The TGI (SF-539 CNS) was over 75 µM, the TGI (MDA-N) was over 75 µM and the TGI (OVCAR-3 ovarian) was over 75 µM. For the same compound, the TGI (SK-MEL-5 melanoma) was over 75 µM, the TGI (SK-MEL-2 melanoma) was over 75 µM and the TGI (T-47D breast) was over 75 µM. The TGI (U251 CNS) was over 75 µM, the TGI (OVCAR-8 ovarian) was over 75 µM and the TGI (COLO 205 colon) was over 75 µM. The TGI (DU-145 prostate) was over 75 µM, the TGI (A549 NSCLC) was over 75 µM and the TGI (HCT-116 colon) was over 75 µM. For the same compound, the TGI (SNB-75 CNS) was over 75 µM, the TGI (BT-549 breast) was over 75 µM and the TGI (HOP-62 NSCLC) was over 75 µM. For the same compound, the TGI (UACC-257 melanoma) was over 75 µM, the TGI (NCI-H522 lung) was over 75 µM and the TGI (TK-10 renal) was over 75 µM. The TGI (MDA-MB-435) was over 75 µM, the TGI (ACHN renal) was over 75 µM and the TGI (NCI-H460 lung) was over 75 µM. The TGI (SR leukemia) was over 75 µM, the TGI (M14 melanoma) was over 75 µM and the TGI (HT29 colon) was over 75 µM. It also gave a TGI (PC-3 prostate) of over 75 µM, a TGI (HS 578T breast) of over 75 µM and a TGI (SF-295 CNS) of over 75 µM. For the same compound, the TGI (OVCAR-5 ovarian) was over 75 µM, the TGI (A498 renal) was over 75 µM and the TGI (786-0 renal) was over 75 µM. It also gave a TGI (SN12C renal) of over 75 µM, a TGI (NCI-H23 lung) of over 75 µM and a TGI (SW-620 colon) of over 75 µM. For the same compound, the TGI (MDA-MB-231 breast) was over 75 µM, the TGI (UACC-62 melanoma) was over 75 µM and the TGI (SK-OV-3 ovarian) was over 75 µM.
